From US20040180943A1, “Oxazolone analogs as amyloid aggregation inhibitors and for the treatment of alzheimer's disease and disorders related to amyloidosis” (priority 2002, published 2004)
Several values for one entry are separate records, joined by “and”; a condition that tells them apart may be missing. Equal values may be shown once. Read-outs that look alike come from different tables or passages of the source.

What was measured:
Type in all cases: biochemical
Aβ(1-40) peptide = biological target: T1, Aβ(1-40) peptide (Homo sapiens, UniProt P05067); test: BASSR (Beta-Amyloid Self-Seeding Radioassay), inhibitors of self-seeded amyloid fibril growth; conditions: 30 μM soluble Aβ(1-40) + 125I-labeled Aβ(1-40), pH 7.5, 37° C. for 3 to 5 hours, filtration
T1 construct: Soluble Aβ(1-40) peptide (Bachem, Torrance, Calif.); purchased Bachem, Torrance, Calif
T1 sequence (P05067 672-711): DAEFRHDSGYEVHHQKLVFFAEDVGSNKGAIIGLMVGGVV
Experimental: 1. BASSR (Beta-Amyloid Self-Seeding Radioassay)
An assay for inhibitors of self-seeded amyloid fibril growth
(§1) Assay Buffer—50 mM sodium phosphate, pH 7.5, 100 mM NaCl, 0.02% NaN3, 1 M urea (filter and store at 4° C.)
Soluble Aβ(1-40) peptide (Bachem, Torrance, Calif.)—2.2 mg/mL in deionized H2O (is stored in aliquots at −20° C.; is kept on ice when thawed) will self-seed after 1 week storage. Typically, the solution is stored until no lag phase is seen in the assay.
^125I-labeled Aβ(1-40)—150K to 350K cpm/μL in 100% acetonitrile—0.1% trifluoroacetic acid (TFA)—1% β-mercaptoethanol (aliquots stored at −20° C.). ^125I-labeled Aβ(1-40) is made in accordance with the procedure set forth by LeVine H., III, in Neurobiol. Aging, 1995;16:755, which is hereby incorporated by reference, or this reagent may be purchased from Amersham, Arlington Heights, Ill.
Final assay conditions: 30 μM soluble Aβ(1-40) in deionized water in assay buffer+20 K to 50 K cpm ^125I-labeled Aβ(1-40) per assay. Compound to be tested is dissolved in dimethylsulfoxide (DMSO), typically 5 to 50 mM stock, such that the final concentration of DMSO is <1% v/v in the assay.
Assay: Reaction mixture for 50 assays (on ice) is comprised of 0.1 to 0.2 μL of ^125I-labeled A^125I-labeled Aβ(1-40)+1 μL of soluble Aβ(1-40)+13.5 μL assay buffer per assay. The following are the amounts of the components of the reaction mixture sufficient for 50 assay wells.
1) The reaction mixture of above is prepared by mixing components and storing on ice.
2) 14.5 μL of the reaction mixture is pipetted into each of 50 wells on a polypropylene U-bottom 96-well microtiter plate on ice (Costar 3794).
(§2) 3) 1.7 μL of diluted compound to be tested is added to each well in a column of eight, including solvent control. Serial 3-fold dilutions from 1 mM (100 μM final) in assay buffer−urea=7 dilutions+zero. Each 96-well plate can therefore accommodate 11 samples+1 Congo Red control (0.039-5 μM final in 2-fold steps).
4) The plate with aluminum film (Beckman 538619) is sealed and incubated for 10 minutes on ice.
(§3) 5) The temperature is raised to 37° C. and incubated for 3 to 5 hours (depending on the lot of the peptide).
6) The aluminum film is removed and 200 μL/well of ice cold assay buffer with urea is added. The radiolabeled fibrils are collected by vacuum filtration through 0.2 μm pore size GVWP filters in 96-well plates (Millipore MAGV N22, Bedford, Mass.). The radioactivity of the filters is determined by using standard methods well-known to those skilled in the art.

Aβ (1-40) = biological target: T2, Aβ (1-40) (Homo sapiens, UniProt P05067); test: BASST (Beta-Amyloid Self-Seeding, ThioflavinT), inhibitors of self-seeded amyloid fibril growth; conditions: 30 μM soluble Aβ(1-40), pH 7.5, 37° C. for 3 to 5 hours, thioflavin T fluorescence
T2 construct: Soluble Aβ (1-40)—2.2 mg/mL in deionized H2O
T2 sequence (P05067 672-711): as above
Experimental: 2. BASST (Beta-Amyloid Self-Seeding, ThioflavinT)
An assay for inhibitors of self-seeded arnyloid fibril growth
as §1
Soluble Aβ (1-40)—2.2 mg/mL in deionized H2O (is stored in aliquots at −20° C.; is kept on ice when thawed) will self-seed after 1 week storage. Typically, the solution is stored until no lag phase is seen in the assay.
Final assay conditions: 30 μM soluble Aβ(1-40) in deionized water in assay buffer. Compound to be tested is dissolved in DMSO, typically 5 to 50 mM stock, such that the final concentration of DMSO is <1% v/v in the assay.
Assay: Reaction mixture for 50 assays (on ice) is comprised of 1 μL of soluble Aβ(1-40)+13.5 μL assay buffer per assay. The following are the amounts of the components of the reaction mixture that result in each of the 50 assay wells.
1) The reaction mix above is prepared by mixing the components and storing on ice.
2) 14.5 μL of reaction mixture is pipetted into each of 50 wells of a polystyrene U-bottom, 96-well microtiter plate (Corning 25881-96) on ice.
as §2
4) The plate with aluminum film is sealed and incubated for 10 minutes on ice.
as §3
6) The aluminum film is removed and 250 μL/well of 5 μM thioflavin T (ThT) [T-3516, Sigma-Aldrich] is added in 50 mM glycine-NaOH, pH 8.5. Fluorescence is read on a plate reader (ex=440 nm/20 nm; em=485 nm/20 nm) within 5 minutes.

Aβ (1-42) = biological target: T3, Aβ (1-42) (Homo sapiens, UniProt P05067); test: Batym Assay (Aβ(1-42) aggregation, Thioflavin T fluorescence); conditions: Aβ 1-42 final concentration 100 μM, PBS pH 7.4, 37° C. for 1 day, ThT fluorescence
T3 construct: Required Aβ (1-42) (California Peptide) is dried from its hexafluoroisopropanol (HFIP) stock solution; purchased California Peptide
T3 sequence (P05067 672-713): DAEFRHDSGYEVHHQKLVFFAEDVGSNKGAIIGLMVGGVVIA
Experimental: Required Aβ (1-42) (California Peptide) is dried from its hexafluoroisopropanol (HFIP) stock solution. The Aβ (1-42) is dissolved in DMSO and then mixed with phosphate buffered saline (PBS) (pH 7.4). The mixed Aβ (1-42) solution is filtered with a GVWP 0.22 μm syringe filter (Millipore, Bedford, Mass.). The compound to be tested in DMSO (50 times concentrate) is put into each well (0.5 μL/well) of a 96-well plate. The Aβ(1-42) solution is added into each well (25 μL/well). The plate is centrifuged at 1000 g for 5 minutes and incubated at 37° C. for 1 day (Aβ 1-42; final concentration 100 μM).
After incubation Thioflavin T (ThT) (30 μM) solution in glycine-NaOH buffer (pH 8.5, 50 mM) is added into each well (250 μL/well), fluorescence is measured (ex=440/20 nm, em=485/20 nm) using a fluorescence plate reader. The inhibitory activity is calculated as the reduction of fluorescence with the following formula:
Inhibition(%)={(F(Aβ)−F(Aβ+compound)}/{F(Aβ)−F(solvent−compound)}×100.
The IC50s are calculated by a curve-fitting program using the equation given below. The data is obtained from two different experiments in triplicate.
x=concentration of tested compound (M),

SMILES	IC50 (Aβ(1-40) peptide; read-out: BASSR (IC50 = μM))	IC50 (Aβ (1-40); read-out: BASST (IC50 = μM)) [µM]	IC50 (Aβ (1-42))	IC50 (Aβ(1-40) peptide; BASSR (IC50 = μM)) [µM]	IC50 (Aβ (1-40); BASST (IC50 = μM)) [µM]
O=C1OC(c2ccccc2)=N/C1=C\c1ccc(Cl)c(Cl)c1 [compound 11, 4-(3,4-Dichloro-benzylidene)-2-phenyl-4H-oxazol-5-one]	21 µM	30			
CCCN(CCC)c1ccc(/C=C2/N=C(c3ccccc3)OC2=O)cc1 [compound 7, 4-(4-Dipropylamino-benzylidene)-2-phenyl-4H-oxazol-5-one]	> 100 µM	8	2.42 µM and 2.36 µM		
CN(C)c1ccc(/C=C2\N=C(c3ccccc3)OC2=O)c2ccccc12 [compound 6, 4-(4-Dimethylamino-naphthalen-1-ylmethylene)-2-phenyl-4H-oxazol-5-one]	> 100 µM	2.6	14.5 µM		
COc1cccc(/C=C2\N=C(c3ccccc3)OC2=O)c1 [compound 8, 4-(3-Methoxy-benzylidene)-2-phenyl-4H-oxazol-5-one]	> 100 µM	7			
Cc1ccc(/C=C2\N=C(c3ccccc3)OC2=O)cc1C [compound 12, 4-(3,4-Dimethyl-benzylidene)-2-phenyl-4H-oxazol-5-one]	> 100 µM				
O=C1OC(c2ccccc2)=N/C1=C\c1ccc(F)c(C(F)(F)F)c1 [compound 14, 4-(4-Fluoro-3-trifluoromethyl-benzylidene)-2-phenyl-4H-oxazol-5-one]	> 100 µM	> 100			
O=C1OC(c2ccc([N+](=O)[O-])cc2)=N/C1=C\c1ccc(Cl)c(Cl)c1 [compound 13, 4-(3,4-Dichloro-benzylidene)-2-(4-nitro-phenyl)-4H-oxazol-5-one]	70 µM	90			
COc1cccc(/C=C2\N=C(c3ccc([N+](=O)[O-])cc3)OC2=O)c1OC [compound 9, 4-(2,3-Dimethoxy-benzylidene)-2-(4-nitro-phenyl)-4H-oxazol-5-one]	> 100 µM	12			
COc1ccc(/C=C2\N=C(c3ccccc3)OC2=O)cc1OC [compound 4, 5(4H)-Oxazolone,4-[(3,4-dimethoxyphenyl)methylene]-2-phenyl-]	7 µM and 8 µM	> 100	> 100 µM		
O=C1OC(c2ccccc2)=N/C1=C\c1ccc2c(c1)OCO2 [compound 2, 4-1,3-Benzodioxol-5-ylmethylene-2-phenyl-4H-oxazol-5-one]	21 µM		> 100 µM		
COc1c(/C=C2\N=C(c3ccccc3)OC2=O)cc([N+](=O)[O-])cc1[N+](=O)[O-] [compound 3, 4-(2-Methoxy-3,5-dinitro-benzylidene)-2-phenyl-4H-oxazol-5-one]				> 100	7
O=C1OC(c2ccccc2)=N/C1=C\c1ccccc1 [compound 1, 4-Benzylidene-2-phenyl-4H-oxazol-5-one]	> 100 µM	> 100			
COc1ccc(C2=N/C(=C\c3ccccc3)C(=O)O2)cc1 [compound 5, 4-Benzylidene-2-(4-methoxy-phenyl)-4H-oxazol-5-one]	16 µM				
COc1ccc(/C=C2\N=C(c3ccccc3I)OC2=O)cc1OC [compound 10, 4-(3,4-Dimethoxy-benzylidene)-2-(2-iodo-phenyl)-4H-oxazol-5-one]	> 100 µM	15			
